pEC50: −log10 of the molar value. Where two headings read alike, the source gives them in different places.
Columns and labels:
[1] = target: T1, CFTR (F508del/MF-HBE cells) (Homo sapiens, UniProt P13569, DEL508-508); assay: Ussing chamber assay of CFTR-mediated short-circuit currents, Assay D (single concentration of 1 μM); format: cell-based; conditions: with 44 nM potentiator and 18 μM Tezacaftor, 20% human serum; for D activity at 1 μM (%): 18-24 hours
T1 construct: human bronchial epithelial (HBE) cells derived from CF subjects heterozygous for F508del and a minimal function CFTR mutation (F508del/MF-HBE); endogenous in cells; host or cells: Primary human bronchial epithelial cells from CF subjects (F508del/MF genotype), differentiated at an air-liquid interface
Summary of the method: (§1)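 Short-circuit current was recorded at 37 °C under voltage clamp (0 mV) with amiloride 30 μM apically, forskolin 20 μM activation, then BPO/GlyH-101/inh-172 (20 μM each) to isolate CFTR current. Before recording, corrector exposure lasted 18–24 h with 18 μM tezacaftor, 20% human serum, and 33 nM (dose–response) or 44 nM (1 μM fixed) potentiator, maintained throughout.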

[2] = target: T1, CFTR (F508del/MF-HBE cells); assay: Ussing chamber assay of CFTR-mediated short-circuit currents, Assay C (0.026 μM to 25 μM, 6 concentrations); format: cell-based; conditions: with 33 nM potentiator and 18 μM Tezacaftor, 20% human serum; for Emax: read-out: C Max activity (%)
Summary of the method: as §1

T1 sequence (P13569 with tags, fused parts or gaps DEL508-508): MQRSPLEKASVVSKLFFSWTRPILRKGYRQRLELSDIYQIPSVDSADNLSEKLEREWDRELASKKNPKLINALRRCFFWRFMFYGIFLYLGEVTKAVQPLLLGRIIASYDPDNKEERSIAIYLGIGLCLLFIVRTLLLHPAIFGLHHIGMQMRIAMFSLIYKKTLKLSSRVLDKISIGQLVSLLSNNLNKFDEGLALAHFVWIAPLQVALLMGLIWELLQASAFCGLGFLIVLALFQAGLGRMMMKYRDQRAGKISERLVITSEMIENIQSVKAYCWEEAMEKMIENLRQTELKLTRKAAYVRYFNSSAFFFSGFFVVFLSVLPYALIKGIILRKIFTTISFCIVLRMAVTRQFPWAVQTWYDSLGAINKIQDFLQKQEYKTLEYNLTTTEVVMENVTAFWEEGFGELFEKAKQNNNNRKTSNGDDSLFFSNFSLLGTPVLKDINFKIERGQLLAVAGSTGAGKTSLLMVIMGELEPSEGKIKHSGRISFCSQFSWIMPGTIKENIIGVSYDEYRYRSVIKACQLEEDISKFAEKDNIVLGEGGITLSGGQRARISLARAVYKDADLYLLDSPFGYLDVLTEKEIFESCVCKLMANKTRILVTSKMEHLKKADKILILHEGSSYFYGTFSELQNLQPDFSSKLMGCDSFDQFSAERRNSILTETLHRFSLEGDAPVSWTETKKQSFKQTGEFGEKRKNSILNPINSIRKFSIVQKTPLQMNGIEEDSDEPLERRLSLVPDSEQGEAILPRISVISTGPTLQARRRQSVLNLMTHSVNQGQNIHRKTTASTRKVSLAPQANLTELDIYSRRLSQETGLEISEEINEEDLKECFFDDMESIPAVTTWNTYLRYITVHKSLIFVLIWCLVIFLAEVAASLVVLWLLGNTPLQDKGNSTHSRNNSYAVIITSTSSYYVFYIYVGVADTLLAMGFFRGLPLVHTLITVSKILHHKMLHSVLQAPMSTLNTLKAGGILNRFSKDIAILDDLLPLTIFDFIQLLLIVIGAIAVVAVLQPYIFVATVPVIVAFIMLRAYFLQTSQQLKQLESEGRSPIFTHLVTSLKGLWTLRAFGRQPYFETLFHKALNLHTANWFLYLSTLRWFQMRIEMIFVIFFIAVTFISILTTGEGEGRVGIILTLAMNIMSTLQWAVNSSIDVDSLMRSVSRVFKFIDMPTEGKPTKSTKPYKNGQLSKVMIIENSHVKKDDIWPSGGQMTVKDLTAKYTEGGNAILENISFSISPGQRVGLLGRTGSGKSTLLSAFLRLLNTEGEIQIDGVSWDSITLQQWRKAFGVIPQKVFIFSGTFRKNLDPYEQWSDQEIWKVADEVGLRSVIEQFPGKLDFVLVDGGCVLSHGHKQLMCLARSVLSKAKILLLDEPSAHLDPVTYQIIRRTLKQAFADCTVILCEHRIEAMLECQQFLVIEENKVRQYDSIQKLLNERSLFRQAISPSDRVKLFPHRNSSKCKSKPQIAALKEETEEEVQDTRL

SMILES | D activity at 1 μM (%) [1] | Emax ([2]; 18-24 hours) [%] | pEC50 [2] | D act. at 1 μM (%) [1] | Emax [2] [%]
Cc1cccc(CC(C)C)c1-c1nc2nc(c1C)OC[C@@H](CC(C)(C)C)N(Cc1cnc3oc(C4CC4)cc3n1)C(=O)c1cccc(c1)S(=O)(=O)N2 (atropisomer, axis not shown) [Compound I-137] | +++ (+++ is >60%) | > 60 | > 6.00 | – | –
Cc1cccc(C2CC2)c1-c1nc2nc(c1C)OC[C@@H](CC(C)(C)C)N(Cc1cnc3oc(C4CC4)cc3n1)C(=O)c1cccc(c1)S(=O)(=O)N2 (atropisomer, axis not shown) [Compound I-152] | +++ (+++ is >60%) | > 60 | > 6.00 | – | –
Cc1cccc(CC(C)C)c1-c1nc2nc(c1C)OC[C@@H](CC(C)(C)C)N(Cc1cnc3nc(C4CC4)n(C)c3n1)C(=O)c1cccc(c1)S(=O)(=O)N2 (atropisomer, axis not shown) [Compound I-170] | +++ (+++ is >60%) | > 60 | > 6.00 | – | –
Cc1cccc(CC(C)C)c1-c1nc2nc(c1C)OC[C@@H](CC(C)(C)C)N(Cc1cnc3nc(C(C)C)n(C)c3n1)C(=O)c1cccc(c1)S(=O)(=O)N2 (atropisomer, axis not shown) [Compound I-171] | +++ (+++ is >60%) | > 60 | > 6.00 | – | –
Cc1cccc(CC2CCCC2)c1-c1nc2nc(c1C)OC[C@@H](CC(C)(C)C)N(Cc1cnc3oc(C4CC4)cc3n1)C(=O)c1cccc(c1)S(=O)(=O)N2 (atropisomer, axis not shown) [Compound I-195] | +++ (+++ is >60%) | > 60 | > 6.00 | – | –
Cc1cccc(CCC(C)C)c1-c1nc2nc(c1C)OC[C@@H](CC(C)(C)C)N(Cc1cnc3oc(C4CC4)cc3n1)C(=O)c1cccc(c1)S(=O)(=O)N2 (atropisomer, axis not shown) [Compound I-204] | +++ (+++ is >60%) | > 60 | > 6.00 | – | –
Cc1cccc(CC(C)C)c1-c1nc2nc(c1C)OC[C@@H](COC(C)C)N(Cc1cnc3cc(C(C)C)n(C)c3n1)C(=O)c1cccc(c1)S(=O)(=O)N2 (atropisomer, axis not shown) [Compound I-211] | +++ (+++ is >60%) | > 60 | > 6.00 | – | –
Cc1cccc(C(C)C)c1-c1nc2nc(c1C)OC[C@@H](CC(C)(C)C)N(Cc1cnc3oc(C4(C)CC4)cc3n1)C(=O)c1cccc(c1)S(=O)(=O)N2 (atropisomer, axis not shown) [Compound I-213] | +++ (+++ is >60%) | > 60 | > 6.00 | – | –
Cc1cccc(CC(C)C)c1-c1nc2nc(c1C)OC[C@@H](CC(C)(C)C)N(Cc1cnc3cc(C4(C)CC4)n(C)c3n1)C(=O)c1cccc(c1)S(=O)(=O)N2 (atropisomer, axis not shown) [IV-19] | – | – | > 6.00 | +++ (+++ is >60%) | > 60
Cc1cccc(CC(C)C)c1-c1nc2nc(c1C)OC[C@@H](CC1(C)CC1)N(Cc1cnc3cc(C(C)(C)C)n(C)c3n1)C(=O)c1cccc(c1)S(=O)(=O)N2 (atropisomer, axis not shown) [IV-44] | – | – | 5.52 to 6.00 | +++ (+++ is >60%) | > 60
Cc1cccc(CC(C)C)c1-c1nc2nc(c1C)OC[C@@H](CC1(C)CC1)N(Cc1cnc3oc(C(C)(C)C)cc3n1)C(=O)c1cccc(c1)S(=O)(=O)N2 (atropisomer, axis not shown) [IV-45] | – | – | 5.52 to 6.00 | +++ (+++ is >60%) | > 60
Cc1cccc(CC(C)C)c1-c1nc2nc(c1C)OC[C@@H](CC1(C)CC1)N(Cc1cnc3oc(C(C)C)cc3n1)C(=O)c1cccc(c1)S(=O)(=O)N2 (atropisomer, axis not shown) [IV-46] | – | – | > 6.00 | +++ (+++ is >60%) | > 60
Cc1cccc(CC(C)C)c1-c1nc2nc(c1C)OC[C@@H](CC(C)(C)C)N(Cc1ncc3cc(C(C)(C)C)n(C)c3n1)C(=O)c1cccc(c1)S(=O)(=O)N2 (atropisomer, axis not shown) [IV-47] | – | – | 5.52 to 6.00 | +++ (+++ is >60%) | > 60
Cc1cccc(C)c1-c1cc2nc(n1)NS(=O)(=O)c1cccc(c1)C(=O)N(Cc1cnc3cc(C4(C)CC4)n(C)c3n1)[C@@H](C(C1CCC1)C1CCC1)CO2 (single isomer, unassigned) [IV-20, 11-[di(cyclobutyl)methyl]-6-(2,6-dimethylphenyl)-12-[[5-methyl-6-(1-methylcyclopropyl)pyrrolo[2,3-b]pyrazin-3-yl]methyl]-2,2-dioxo-9-oxa-2λ^6-thia-3,5,12,19-tetrazatricyclo[12.3.1.14,8]nonadeca-1(18),4(19),5,7,14,16-hexaen-13-one] | – | – | > 6.00 | +++ (+++ is >60%) | > 60
Cc1cccc(C)c1-c1cc2nc(n1)NS(=O)(=O)c1cccc(c1)C(=O)N(Cc1cnc3cc(C4CC4)n(C)c3n1)[C@@H](CCC1(C)CC1)CO2 (stereo in doubt) [Compound I-207] | +++ (+++ is >60%) | > 60 | > 6.00 | – | –
Cc1cccc(C)c1-c1cc2nc(n1)NS(=O)(=O)c1cccc(c1)C(=O)N(Cc1cn3cccc(O)c3n1)[C@H](CC(C)(C)C)CO2 [III-15] | +++ (+++ is >60%) | – | – | – | –
Cc1cccc(C)c1-c1cc2nc(n1)NS(=O)(=O)c1cccc(c1)C(=O)N(Cc1nn(C(C)C)c3ccccc13)[C@H](CC(C)(C)C)CO2 [III-17] | +++ (+++ is >60%) | – | – | – | –
Cc1cccc(C)c1-c1cc2nc(n1)NS(=O)(=O)c1cccc(c1)C(=O)N(Cc1nc3c(cc(C(C)C)n3C)s1)[C@H](CC(C)(C)C)CO2 [III-20, (11R)-6-(2,6-dimethylphenyl)-11-(2,2-dimethylpropyl)-12-[(5-isopropyl-4-methyl-pyrrolo[2,3-d]thiazol-2-yl)methyl]-2,2-dioxo-9-oxa-2λ^6-thia-3,5,12,19-tetrazatricyclo[12.3.1.14,8]nonadeca-1(18),4(19),5,7,14,16-hexaen-13-one] | +++ (+++ is >60%) | – | – | – | –
CCc1c2nc(nc1-c1c(C)cccc1C)NS(=O)(=O)c1cccc(c1)C(=O)N(Cc1cnc3oc(C(C)(C)C)cc3n1)[C@H](COC(C)C)CO2 [IV-3] | – | – | – | +++ (+++ is >60%) | –
Cc1cccc(C)c1-c1cc2nc(n1)NS(=O)(=O)c1cccc(c1)C(=O)N(Cc1cnc3oc(C(C)(C)C)cc3n1)[C@H](CC(C)C)CO2 [IV-6] | – | – | – | +++ (+++ is >60%) | –
Cc1cccc(C)c1-c1cc2nc(n1)NS(=O)(=O)c1cccc(c1)C(=O)N(Cc1cnc3oc(C(C)(C)C)cc3n1)[C@H](CC1CCC1)CO2 [IV-7] | – | – | – | +++ (+++ is >60%) | –
Cc1cccc(C)c1-c1cc2nc(n1)NS(=O)(=O)c1cccc(c1)C(=O)N(Cc1cnc3oc(C(C)(C)C)cc3n1)[C@H](CC1CCCC1)CO2 [IV-8] | – | – | – | +++ (+++ is >60%) | –
Cc1cccc(C)c1-c1cc2nc(n1)NS(=O)(=O)c1cccc(c1)C(=O)N(Cc1cnc3oc(C(C)(C)C)cc3n1)[C@H](CC1CCCCC1)CO2 [IV-9] | – | – | – | +++ (+++ is >60%) | –
Cc1cccc(C)c1-c1cc2nc(n1)NS(=O)(=O)c1cccc(c1)C(=O)N(Cc1cnc3oc(C(C)(C)C)cc3n1)[C@@H](CCC1(C)CC1)CO2 [IV-10] | – | – | – | +++ (+++ is >60%) | –
COC(C)(C)CC(C)(O)c1cc2nc(CN3C(=O)c4cccc(c4)S(=O)(=O)Nc4nc(cc(-c5c(C)cccc5C)n4)OC[C@H]3CC3(C)CC3)cnc2o1 (stereo partly drawn) [IV-13, (11R)-6-(2,6-dimethylphenyl)-12-[[6-(1-hydroxy-3-methoxy-1,3-dimethyl-butyl)furo[2,3-b]pyrazin-2-yl]methyl]-11-[(1-methylcyclopropyl)methyl]-2,2-dioxo-9-oxa-2λ^6-thia-3,5,12,19-tetrazatricyclo[12.3.1.14,8]nonadeca-1(18),4(19),5,7,14,16-hexaen-13-one] | – | – | – | +++ (+++ is >60%) | –
COCc1cc2nc(CN3C(=O)c4cccc(c4)S(=O)(=O)Nc4nc(cc(-c5c(C)cccc5C)n4)OC[C@H]3CC3(C)CC3)cnc2o1 [IV-16, (11R)-6-(2,6-dimethylphenyl)-12-[[6-(methoxymethyl)furo[2,3-b]pyrazin-2-yl]methyl]-11-[(1-methylcyclopropyl)methyl]-2,2-dioxo-9-oxa-2λ^6-thia-3,5,12,19-tetrazatricyclo[12.3.1.14,8]nonadeca-1(18),4(19),5,7,14,16-hexaen-13-one] | – | – | – | +++ (+++ is >60%) | –
CC(C)=Cc1cc2nc(CN3C(=O)c4cccc(c4)S(=O)(=O)Nc4nc(cc(-c5c(C)cccc5C)n4)OC[C@H]3CC3(C)CC3)cnc2o1 [IV-17, (11R)-6-(2,6-dimethylphenyl)-11-[(1-methylcyclopropyl)methyl]-12-[[6-(2-methylprop-1-enyl)furo[2,3-b]pyrazin-2-yl]methyl]-2,2-dioxo-9-oxa-2λ^6-thia-3,5,12,19-tetrazatricyclo[12.3.1.14,8]nonadeca-1(18),4(19),5,7,14,16-hexaen-13-one] | – | – | – | +++ (+++ is >60%) | –
Cc1cccc(C)c1-c1cc2nc(n1)NS(=O)(=O)c1cccc(c1)C(=O)N(Cc1cnc3oc(C#N)cc3n1)[C@H](CC1(C)CC1)CO2 [IV-28] | – | – | – | +++ (+++ is >60%) | –
Cc1cccc(C)c1-c1cc2nc(n1)NS(=O)(=O)c1cccc(c1)C(=O)N(Cc1ncc3cc(C4CC4)n(C)c3n1)[C@H](COC(C)C)CO2 [IV-29] | – | – | – | +++ (+++ is >60%) | –
Cc1cccc(C)c1-c1cc2nc(n1)NS(=O)(=O)c1cccc(c1)C(=O)N(Cc1cnc3sc(C4CC4)cc3n1)[C@H](CC1(C)CC1)CO2 [IV-41] | – | – | – | +++ (+++ is >60%) | –

— US20250340574A1, “MODULATORS OF CYSTIC FIBROSIS TRANSMEMBRANE CONDUCTANCE REGULATOR” (Vertex Pharmaceuticals Incorporated, priority 2022, published 2025)
